Earlier results, collected in US11094527B2, “Wet clean solutions to prevent pattern collapse” (INTERNATIONAL BUSINESS MACHINES CORPORATION, priority 2018, dated 2021).
Where two headings read alike, the source gives them in different places.

Key:
[1] = not given; remark: listed apart in the source

For Diethyl ether, the “Water solubility (in words)” value is given as “low water solubility”, the Water solubility (20° C.) is given as 6.9 g/100 mL and the “Surface tension (at about 20° C.)” value [1] is given as 16.5 mN/m.
In the case of `c1ccccc1` [Benzene], the “Surface tension (at about 20° C.)” value [1] is given as <30 mN/m.
For `CC(C)O` [Isopropyl alcohol, reference compound], the “Water solubility (in words)” value is listed as “miscible in water”, the Water solubility (temperature not given) is listed as “Miscible” and the “Surface tension (at about 20° C.)” value [1] is listed as <30 mN/m.
